Test system: Ba/F3 cells transfected with T315I BCR-ABL
Experiment: BCR-ABL phospho-ELISA in T315I cells or Ba/F3 T315I proliferation (XTT)
Format: cell-based
Details: Mus musculus, BaF3, phospho-ELISA or 72 h XTT proliferation, read-out: P_ELISA_[T3151l_Cells] or Ba/F3 T315l proliferation (XTT)
Description: MV4-11 and THP cells were maintained in Iscove's Modified Dulbecco's Medium supplemented with 10% fetal bovine serum (FBS) and penicillin/streptomycin, Ba/F3 cells were maintained in RPMI 1640 supplemented with 10% FBS, penicillin/streptomycin and 5 ng/ml recombinant mouse IL-3.
Compounds were tested in the following assays in duplicate.
96-well XTT assay: Cells were grown in growth media containing various concentrations of compounds (duplicates) on a 96-well plate for 72 hours at 37° C. The starting cell number was 5000-8000 cells per well and volume was 120 μl. At the end of the 72-hour incubation, 40 μl of XTT labeling mixture (50:1 solution of sodium 3′-[1-(phenylamino-carbonyl)-3,4-tetrazolium]-bis(4-methoxy-6-nitro) benzene sulfonic acid hydrate and Electron-coupling reagent: PMS (N-methyl dibenzopyrazine methyl sulfate) were added to each well of the plate. After an additional 2-6 hours of incubation at 37° C., the absorbance reading at 405 nm with background correction at 650 nm was measured with a spectrophotometer.
BCR-ABL Phospho-ELISA Assay
Cells (Ba/F3 cells transfected with WT BCR-ABL, other kinases, or T315I, Y253F, or other mutant forms of BCR-ABL) were grown in the absence of IL-3 at least ½ week before the assay. The day before assay, the cells were fed with fresh media so that at the time of assay the cells were in log phase. Ba/F3 cells that had been grown in the absence of IL-3 for at least ½ week were resuspended in RPMI 1640 so that each well of a 96-well plate would contain approximately 200,000 cells. Cells were distributed in a 96-well plate containing serially diluted concentrations of test compounds. Cells were typically incubated with or without test compounds for 60-120 minutes at 5% CO2, 37° C. The incubation was performed with or without other additives such as 10% FCS or 50% human plasma. After incubation of compounds, lysis buffer was added and incubated for 10-15 minutes; the lysate was cleared by centrifugation.
To make the ELISA plate, commercially available Anti-ABL antibodies (e.g. (Ab-3, Calbiochem OP20) were prepared at a concentration of 0.125 μg/ml in coating buffer (0.1M Na-carbonate, pH 9.5), and plated at 10 ml per plate ([…] 100 μg/ml Ab/10 ml). In a high binding multi-well plate, 100 μl Ab in coating buffer were added to each well, and each plate was covered with a plate seal and incubated overnight at 4° C.
Excess antibody was removed and the ELISA plate was washed 3-4 times with 200 μl of wash buffer (0.05% Tween in PBS, pH 7.4). 150 μl of lysate (see above) were transferred to the ELISA plate. Plates were sealed and incubated 2 hours at room temperature. The detection antibody (e.g. HRP conjugated anti-pTyr or unconjugated α-p-Y 4G10, Upstate) was prepared in assay diluent. The antibody was diluted 1:1000 (stock=2 μg/μl, 200 μg in 100 μl; f.c.=2 μg/ml) in assay diluent and 10 ml of diluted antibody per plate were added. The lysate was removed from the ELISA plates, and wells were washed four times with 200 μl of wash buffer per well. 100 μl of detection antibody was added to each well; the plate was covered, and incubated 1 hr at room temperature (21° C.). Excess detection antibody was removed from the ELISA plates, and the wells were washed four times with 200 μl of wash buffer per well.
If necessary, (i.e. for unconjugated anti-pTyr antibody) secondary antibody (goat anti-rabbit HRP) was diluted 1:3000 in assay diluent (3.33 μl per 10 ml diluent) and added at 10 ml of diluted antibody per plate. Excess secondary antibody was removed from the ELISA plate, and the plate was washed four times with 200 μl per well of wash buffer.
Substrate Reagent A and Substrate Reagent B (Pierce Cat#37070 SuperSignal ELISA Pico Chemiluminescent Substrate) were added immediately before use (10 ml resultant solution per plate). 100 μl substrate were added per well, mixed for 1 minute, and chemiluminescent signal was measured with a luminometer.

Row | SMILES | IC50
1 | O=C(c1cccc(-c2cnc3[nH]nc(-c4ccncc4Cl)c3c2)c1)N1CCOCC1 | 1000 to 10000 nM
2 | O=C(c1cccc(-c2cnc3[nH]nc(-c4ccc5cc[nH]c5c4)c3c2)c1)N1CCOCC1 | 1000 to 10000 nM
3 | COc1ccccc1-c1c[nH]c2ncc(-c3cccc(C(=O)N(C)C)c3)nc12 | > 10000 nM
4 | COc1cc(-c2cnc3[nH]nc(-c4ccccc4)c3c2)ccc1O | 1000 to 10000 nM
5 | COc1ccccc1-c1n[nH]c2ncc(-c3ccc(O)c(C(=O)N4CCOCC4)c3)cc12 | < 1000 nM
6 | COc1c(F)cccc1-c1n[nH]c2ncc(-c3cccc(C(=O)N4CCOCC4)c3)cc12 | < 1000 nM
7 | COc1ccccc1-c1cnc2[nH]nc(-c3ccccc3OC)c2c1 | 1000 to 10000 nM
8 | Cc1ccsc1-c1n[nH]c2ncc(-c3cccc(C(=O)N4CCOCC4)c3)cc12 | < 1000 nM
9 | Cc1cc(F)ccc1-c1n[nH]c2ncc(-c3cccc(C(=O)N4CCOCC4)c3)cc12 | 1000 to 10000 nM
10 | c1ccc(-c2n[nH]c3ncc(-c4cccnc4)cc23)cc1 | > 10000 nM
11 | COc1ccccc1-c1n[nH]c2ncc(-c3cccc(C(=O)NC(C)C)c3)cc12 | 1000 to 10000 nM
12 | COc1ccccc1-c1n[nH]c2ncc(-c3cccc(S(=O)(=O)NC4CC4)c3)cc12 | < 1000 nM
13 | COc1cc(-c2cnc3[nH]cc(-c4ccc(C)cc4)c3n2)ccc1O | < 1000 nM
14 | COc1ccccc1-c1n[nH]c2ncc(-c3ccc(C(=O)N4CCN(C)CC4)cc3)cc12 | < 1000 nM
15 | COc1ccccc1-c1n[nH]c2ncc(-c3cnc4[nH]n(C)c(=O)c4c3)cc12 | 1000 to 10000 nM
16 | COc1ccccc1-c1n[nH]c2ncc(-c3cccc(C(=O)N4CCN(C)CC4)c3)cc12 | < 1000 nM
17 | COc1ncc(-c2n[nH]c3ncc(-c4cccc(C(=O)N5CCOCC5)c4)cc23)c(OC)n1 | 1000 to 10000 nM

Row | SMILES | IC50
18 | COc1ccccc1-c1n[nH]c2ncc(-c3ccc(C(=O)N4CCCC4)cc3)cc12 | 1000 to 10000 nM
19 | COc1ccccc1-c1n[nH]c2ncc(-c3cccc(C(=O)N4CCN(CCN(C)C)CC4)c3)cc12 | < 1000 nM
20 | COc1ccccc1-c1n[nH]c2ncc(-c3cccnc3)cc12 | 1000 to 10000 nM
21 | COc1ccccc1-c1n[nH]c2ncc(-c3cccc(C(=O)N4CCCC4)c3)cc12 | < 1000 nM
22 | O=C(c1cccc(-c2cnc3[nH]nc(-c4cccc5cccnc45)c3c2)c1)N1CCOCC1 | < 1000 nM
23 | CCN1CCN(C(=O)c2cccc(-c3cnc4[nH]nc(-c5cc(F)ccc5OC)c4c3)c2)CC1 | < 1000 nM
24 | Oc1cccc(-c2cnc3[nH]nc(-c4ccccc4)c3c2)c1 | < 1000 nM
25 | CCc1ccccc1-c1n[nH]c2ncc(-c3cccc(C(=O)N4CCOCC4)c3)cc12 | < 1000 nM
26 | COc1ccccc1-c1n[nH]c2ncc(Br)cc12 | 1000 to 10000 nM
27 | c1ccc(-c2n[nH]c3ncc(-c4ccc5[nH]ccc5c4)cc23)cc1 | 1000 to 10000 nM
28 | COc1ccccc1-c1n[nH]c2ncc(-c3cccc(C(=O)N(C)C)c3)cc12 | < 1000 nM
29 | COc1ccccc1-c1n[nH]c2ncc(-c3ccc(C(=O)N4CCOCC4)cc3)cc12 | 1000 to 10000 nM
30 | COc1ccccc1-c1n[nH]c2ncc(-c3cccc(C(=O)N4CCC(CO)CC4)c3)cc12 | < 1000 nM
31 | COc1ccccc1-c1n[nH]c2ncc(-c3ccc(C(=O)NC4CC4)cc3)cc12 | < 1000 nM
32 | Cn1ccc2cc(-c3n[nH]c4ncc(-c5cccc(C(=O)N6CCOCC6)c5)cc34)ccc21 | 1000 to 10000 nM
33 | CCOc1ccccc1-c1n[nH]c2ncc(-c3cccc(C(=O)N4CCOCC4)c3)cc12 | 1000 to 10000 nM

— US7626021B2, “Fused ring heterocycle kinase modulators” (SGX Pharmaceuticals, Inc., priority 2004, dated 2009)
